Results reported in patent US8852953B2, “Immunodetection and quantification of pyrazolopyrimidine sedatives” (Randox Laboratories Ltd., priority 2009, dated 2014).
Values after ≈ are worked out from the molar mass of the structure shown.

Experiments:
[1] = test system: antiserum raised to Immunogen C (Hapten-C-BTG); assay: Competitive ELISA with antiserum raised to Immunogen C and Conjugate C (Hapten-C-HRP) as detection reagent; assay type: binding, sheep; conditions: for % CR (percentage cross-reactivity based on specificity to Zaleplon) / IC50 (standard concentration which produces 50% B/B0): antiserum to Immunogen C, Conjugate C
[2] = test system: antiserum raised to Immunogen A (Hapten-A-BTG); assay: Competitive ELISA with antiserum raised to Immunogen A and Conjugate A (Hapten-A-HRP) as detection reagent; assay type: binding, sheep
Procedure: Aqueous solutions of the immunogens prepared in Examples 6 and 12 were formulated with Freund's Complete Adjuvant (FCA) to form emulsions of Immunogen A and Immunogen [[B]]C in 50% (v/v) FCA. Individual sheep were immunised with the emulsions of Immunogen A and Immunogen C (primary immunisations), 0.25 ml being subcutaneously injected in the flank of each animal. Subsequent boosts of emulsified immunogens in 50% (v/v) Freund's Incomplete Adjuvant (FIA) were at monthly intervals for 1 year. Blood sampling took place 7-14 days after each boost. Each sample was processed to produce antisera which were further purified by caprylic acid and ammonium sulfate precipitated to yield an immunoglobulin G (IgG) fraction. The IgG fraction was evaluated by competitive ELISA microtitre plate assay, as described in Example 15.
The wells of an enhanced binding 96 well polystyrene microtitre plate were coated with the IgG fraction of the antiserum raised to Immunogen A Hapten A-BTG diluted in 10 mM Tris, pH8.5 (125 μl/well). The appropriate antibody coating dilution was determined using standard ELISA chequerboard techniques. The plate was incubated for 2 hours at 37° C., washed 4 times with Tris buffered saline containing Tween 20 (TBST) and tapped dry. […] 75 μl of Conjugate A (Hapten A-HRP), diluted in Tris buffer containing EDTA, D-mannitol, sucrose, thimerosal and BSA, was added to each of the wells. The appropriate dilution of conjugate was also determined using standard ELISA chequerboard techniques. The plate was incubated at 25° C. for 1 hour. The excess unbound conjugate was removed by washing 6 times over a 10 minute period with TBST. 125 μl of tetramethylbenzedine (TMB) substrate solution was added to each well of the plate and incubated for 20 minutes in the dark at room temperature. The reaction was stopped by the addition of 125 μl of 0.2M H2SO4 to each well. The absorbance was then measured at 450 nm using a microtitre plate reader.

[3] = standard concentration 0.156 ng/ml
[4] = standard concentration 0.313 ng/ml
[5] = standard concentration 0.625 ng/ml
[6] = standard concentration 1.250 ng/ml
[7] = standard concentration 2.500 ng/ml
[8] = standard concentration 5.000 ng/ml
[9] = standard concentration 10.000 ng/ml
[10] = antiserum to Immunogen A, Conjugate A
[11] = standard concentration 0.025 ng/ml
[12] = standard concentration 0.050 ng/ml
[13] = standard concentration 0.100 ng/ml
[14] = standard concentration 0.200 ng/ml
[15] = standard concentration 0.400 ng/ml
[16] = standard concentration 0.800 ng/ml
[17] = standard concentration 1.600 ng/ml

SMILES | % CR (percentage cross-reactivity based on specificity to Zaleplon) [1] [%] | IC50 (standard concentration which produces 50% B/B0) [1] [ng/mL] | % B/B0 [1, 3] [%] | A450 [1, 3] | % B/B0 [1, 4] [%] | A450 [1, 4] | % B/B0 [1, 5] [%] | A450 [1, 5] | % B/B0 [1, 6] [%] | A450 [1, 6] | % B/B0 [1, 7] [%] | A450 [1, 7] | % B/B0 [1, 8] [%] | A450 [1, 8] | % B/B0 [1, 9] [%] | A450 [1, 9] | % CR (percentage cross-reactivity based on specificity to Zaleplon) [2, 10] [%] | further results
CCN(C(C)=O)c1cccc(-c2ccnc3c(C#N)cnn23)c1 [Zaleplon, zaleplon] | 100 | 0.432 (≈ 1.41 nM) | 65 | 1.487 | 54 | 1.236 | 45 | 1.021 | 36 | 0.825 | 27 | 0.610 | 20 | 0.457 | 15 | 0.337 | 100 | IC50 of zaleplon-specific antibody ([2]; as stated in the description): 0.063 ng/mL; % B/B0 [2, 11]: 72%; A450 [2, 11]: 1.542; % B/B0 [2, 12]: 55%; A450 [2, 12]: 1.180; % B/B0 [2, 13]: 40%; A450 [2, 13]: 0.860; % B/B0 [2, 14]: 28%; A450 [2, 14]: 0.602; % B/B0 [2, 15]: 19%; A450 [2, 15]: 0.406; % B/B0 [2, 16]: 13%; A450 [2, 16]: 0.286; % B/B0 [2, 17]: 10%; A450 [2, 17]: 0.211
CC(=O)N(C)c1cccc(-c2ccnc3c(C(=O)c4cccs4)cnn23)c1 [Indiplon, indiplon] | 22 | 1.967 (≈ 5.23 nM) | 84 | 1.831 | 77 | 1.664 | 67 | 1.455 | 57 | 1.234 | 46 | 1.006 | 36 | 0.778 | 27 | 0.579 | <0.63 | IC50 (standard concentration which produces 50% B/B0) [2, 10]: >10 ng/mL; % B/B0 [2, 3]: 96%; A450 [2, 3]: 2.063; % B/B0 [2, 4]: 94%; A450 [2, 4]: 2.019; % B/B0 [2, 5]: 93%; A450 [2, 5]: 1.982; % B/B0 [2, 6]: 99%; A450 [2, 6]: 2.112; % B/B0 [2, 7]: 88%; A450 [2, 7]: 1.877; % B/B0 [2, 8]: 91%; A450 [2, 8]: 1.940; % B/B0 [2, 9]: 90%; A450 [2, 9]: 1.931
